{
  "source": "patent US20240277829A1",
  "about": "“HIV-1 VACCINATION AND SAMT-247 MICROBICIDE TO PREVENT HIV-1 INFECTION” (priority 2021, published 2024)",
  "key": {"SIVmac251": {"tested_on": "SIVmac251", "experiment": "Weekly intravaginal SIVmac251 challenge of vaccinated and/or SAMT-247 gel treated female macaques", "format": "in vivo, Rhesus macaques", "from_the_text": "Animals. Fifty female Indian Rhesus macaques obtained from the free-range breeding colony on Morgan Island, South Carolina, were used in this study. The macaques, aged 2 to 3 years at study initiation, were negative for SIV, simian retrovirus, and STLV, and were MHC typed before being divided into 4 groups: vaccine/microbicide group (20 macaques, 3 A*01 positive, 1 B*17 positive, 1 B*08 positive); vaccine only group (18 macaques, 3 A*01 positive, 1 B*17 positive); microbicide only group (6 macaques, 1 both A*01 positive and B*17 positive) and control group (6 macaques, 1 both A*01 positive and B*17 positive). Data on 37 historical naïve controls intravaginally challenged with the same dose and lot of SIVmac251 were added to the control group to increase statistical power. […]\nImmunization and Challenge. […] Up to 14 challenges were administered until the macaques became SIV positive as assessed by droplet digital PCR. […]\nStatistical analysis. […] Comparisons of differences between groups in the number of challenges before viral acquisition were assessed using the log-rank (Mantel-Cox) test of the discrete-time proportional hazards model. […] Correlation analyses were performed using the non-parametric Spearman rank correlation method with exact permutation and approximate two-tailed P values calculated for the number of pairs≤17 and >17, respectively. […]"}, "NKG2A^+ cells": {"tested_on": "NKG2A^+ cells", "experiment": "Zinc chelation: macaque blood NK cells, SAMT-247 and/or gp120 peptides with or without TPEN", "format": "cell-based", "settings": "presence or absence of gp120 peptide", "experimental": "Zinc chelation: The frequencies and cytokine levels of NK cells, monocytes and T cells were measured in macaque blood. Cryopreserved PBMCs were thawed and cultured in R10 in the presence/or absence of SAMT-247 and/or gp120 peptides for 12 hours. Cells were incubated with or without Zinc chelator TPEN (cat. #P4413-100 MG, 5 μM) for 12 h. Subsequently, cells were stained for live cells with Live/Dead Blue dye (cat. #L34962, 0.5 μl) from Thermofisher; followed by surface staining with the following: Alexa 700 anti-CD3 (SP34-2; cat. #557917, 5 μl), BV711 anti-CD4 (L200; cat. #563913, 5 μl), BB700 anti-CD8 (RPA-T8; cat. #566452, 5 μl), BUV737 anti-CD20 (2H7; cat. #612848, 5 μl), PE anti-CD45 (D058-1283; cat. #552833, 5 μl), BV786 anti-CCR5 (3A9; cat. #565001, 5 μl), BV496 anti-CD16 (3G8; cat. #612944, 5 μl), BUV661 anti-HLA-DR (G46-6; cat. #612980, 5 μl), BUV805 anti-CD14 (M5E2; cat. #565779, 5 μl) from BD Biosciences; APC-H7 anti-CD11b (ICRF44; cat. #47-0118-42, 5 μl), PE-Cy5 anti-CD95 (ICRF44; cat. #15-0959-42, 5 μl) from eBioscience; APC anti-α4β7, provided by the NIH Nonhuman Primate Reagent Resource (R24 OD010976, and NIAID contract HHSN272201300031C); BV605 anti-CCR6 (G034E3; cat. #353420, 5 μl), BV650 anti-CXCR3 (G025H7; cat. #353730, 5 μl), from Biolegend and PE-Cy7 anti-NKG2A (Z199; cat. #B10246, 5 μl) from Beckman coulter for 30 minutes at room temperature. This was followed by permeabilization with a FOX3-transcription buffer set (cat. #00-5523-00) from eBioscience according to the manufacture's recommendation and subsequently intracellular staining with the following: BV750 anti-TNF-α (MAB11; cat. #566359, 5 μl), BUV395 anti-IFN-γ (B27; cat. #563563, 5 μl), BV510 anti-GranB (GB11; cat. #563388, 5 μl), BV421 anti-IL-10 (JES3-9D7; cat. #564053, 5 μl), PE-CF594 anti-Ki67 (B56; cat. #567120, 5 μl) from BD Biosciences and FITC anti-Perforin (pf-344; cat. #3465-7, 5 μl) from MABTECH for 30 minutes at room temperature. Flow cytometry acquisitions were performed on a FACSYMPHONY™ A5 and examined using FACSDIVA™ software (BD Biosciences)."}},
  "note": "Entries after “also recorded” stand apart in the source; their conditions may differ.",
  "data": [
    {"smiles": "CC(=O)Sc1ccccc1C(=O)NCCC(N)=O", "note": "[SAMT-247]", "values": [
      {"measurement": "risk of virus acquisition compared to controls", "setting": "SIVmac251; female macaques, up to 14 weekly intravaginal SIVmac251 exposures, SAMT-247 0.8% in HEC gel 4 h before each challenge", "value": "No differences in delayed acquisition; also recorded: did not significantly decrease; also recorded: had no effect"},
      {"measurement": "peak virus levels, SAMT-247 only group vs controls", "setting": "SIVmac251; infected animals, peak VL at week 2", "value": "no difference"},
      {"measurement": "frequency of NKG2A^+ cells", "setting": "NKG2A^+ cells", "value": "increased"}
    ]}
  ]
}
